Measured values reported in PubChem BioAssay AID330 (DTP/NCI, 2004).
Values joined by “and” are separate entries in the source; they are usually repeats but may differ in a detail not shown here. Equal entries are not always repeated. Toxic doses and inconclusive results are not listed.

System: P388 leukemia ip, CD2F1 mice, survival T/C
Assay: NCI In Vivo Anticancer Drug Screen. Data for tumor model P388 Leukemia (intraperitoneal) in CD2F1 (CDF1) mice
Conditions: endpoint: median survival time, higher = longer survival
Outline: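 Mice carrying the transplanted tumor received test compound or vehicle. Survival was recorded in each group, and the value is the treated-group measurement divided by that of the vehicle-treated control group.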

[1] = dose: 100.0 mg/kg/injection, schedule: Q01DX009 (ip), vehicle: saline
[2] = dose: 200.0 mg/kg/injection, schedule: Q01DX009 (ip), vehicle: saline
[3] = dose: 400.0 mg/kg/injection, schedule: Q01DX009 (ip), vehicle: saline
[4] = dose: 12.5 mg/kg/injection, schedule: Q01DX009 (ip), vehicle: saline with Tween-80
[5] = dose: 25.0 mg/kg/injection, schedule: Q01DX009 (ip), vehicle: saline with Tween-80
[6] = dose: 50.0 mg/kg/injection, schedule: Q01DX009 (ip), vehicle: saline with Tween-80
[7] = dose: 200.0 mg/kg/injection, schedule: Q01DX009 (ip), vehicle: saline with Tween-80
[8] = dose: 50.0 mg/kg/injection, schedule: Q01DX005 (ip), vehicle: Klucel (hydroxypropylcellulose) (HPC)
[9] = dose: 100.0 mg/kg/injection, schedule: Q01DX005 (ip), vehicle: Klucel (hydroxypropylcellulose) (HPC)
[10] = dose: 200.0 mg/kg/injection, schedule: Q01DX005 (ip), vehicle: Klucel (hydroxypropylcellulose) (HPC)

OCC1OC(n2cnc3cncnc32)C(O)C1O (stereo not given)
T/C (dose: 6.25 mg/kg/injection, schedule: Q01DX001 (ip), vehicle: saline): 111 % of control
T/C (dose: 6.25 mg/kg/injection, schedule: Q04DX003 (ip), vehicle: saline): 99 % of control
T/C (dose: 12.5 mg/kg/injection, schedule: Q01DX001 (ip), vehicle: saline): 111 % of control
T/C (dose: 12.5 mg/kg/injection, schedule: Q04DX003 (ip), vehicle: saline): 100 % of control
T/C (dose: 25.0 mg/kg/injection, schedule: Q01DX001 (ip), vehicle: saline): 114 % of control
T/C (dose: 25.0 mg/kg/injection, schedule: Q04DX003 (ip), vehicle: saline): 99 % of control
T/C (dose: 50.0 mg/kg/injection, schedule: Q04DX003 (ip), vehicle: saline): 96 % of control and 97 % of control
T/C (dose: 100.0 mg/kg/injection, schedule: Q04DX003 (ip), vehicle: saline): 100 % of control
T/C (dose: 200.0 mg/kg/injection, schedule: Q04DX003 (ip), vehicle: saline): 104 % of control
T/C (dose: 400.0 mg/kg/injection, schedule: Q04DX003 (ip), vehicle: saline): 104 % of control

NCc1cc(O)c(O)c(O)c1
T/C (dose: 25.0 mg/kg/injection, schedule: Q01DX009 (ip), vehicle: saline): 100 % of control
T/C (dose: 50.0 mg/kg/injection, schedule: Q01DX009 (ip), vehicle: saline): 103 % of control and 120 % of control
T/C [1]: 110 % of control and 118 % of control and 114 % of control
T/C [2]: 116 % of control and 120 % of control and 122 % of control
T/C [3]: 121 % of control and 123 % of control and 124 % of control
T/C (dose: 600.0 mg/kg/injection, schedule: Q01DX009 (ip), vehicle: saline): 155 % of control and 157 % of control and 150 % of control

Cc1cccc(C2=NC(=C3CCCCC3)C(=O)O2)c1
T/C (dose: 60.0 mg/kg/injection, schedule: Q01DX005 (ip), vehicle: saline with Tween-80): 101 % of control
T/C (dose: 120.0 mg/kg/injection, schedule: Q01DX005 (ip), vehicle: saline with Tween-80): 100 % of control
T/C (dose: 240.0 mg/kg/injection, schedule: Q01DX005 (ip), vehicle: saline with Tween-80): 100 % of control

COC1OC(COC(=O)c2ccccc2)C=C(OC(=O)c2ccccc2)C1=O (stereo not given)
T/C (dose: 6.25 mg/kg/injection, schedule: Q01DX009 (ip), vehicle: saline with Tween-80): 103 % of control
T/C [4]: 105 % of control
T/C [5]: 103 % of control
T/C [6]: 102 % of control and 113 % of control and 114 % of control
T/C (dose: 100.0 mg/kg/injection, schedule: Q01DX009 (ip), vehicle: saline with Tween-80): 105 % of control and 92 % of control
T/C [7]: 114 % of control and 96 % of control

N#CC(Br)C(N)=O (stereo not given)
T/C (dose: 1.25 mg/kg/injection, schedule: Q01DX009 (ip), vehicle: saline with Tween-80): 104 % of control
T/C (dose: 2.5 mg/kg/injection, schedule: Q01DX009 (ip), vehicle: saline with Tween-80): 124 % of control
T/C (dose: 5.0 mg/kg/injection, schedule: Q01DX009 (ip), vehicle: saline with Tween-80): 119 % of control

c1ccc(-c2n[nH]c3ccccc23)cc1
T/C (dose: 25.0 mg/kg/injection, schedule: Q04DX003 (ip), vehicle: saline with Tween-80): 101 % of control
T/C (dose: 50.0 mg/kg/injection, schedule: Q04DX003 (ip), vehicle: saline with Tween-80): 110 % of control
T/C (dose: 100.0 mg/kg/injection, schedule: Q04DX003 (ip), vehicle: saline with Tween-80): 101 % of control
T/C (dose: 200.0 mg/kg/injection, schedule: Q04DX003 (ip), vehicle: saline with Tween-80): 99 % of control

[Cl][Pt+2][Cl].[NH-]C(c1ccc(Cl)cc1)C([NH-])c1ccc(Cl)cc1 (stereo not given)
T/C (dose: 6.25 mg/kg/injection, schedule: Q04DX002 (ip), vehicle: saline with Tween-80): 124 % of control

Cc1ccc(N2CCCCN(c3ccc(C)cc3)/C(c3ccccc3)=C\2c2ccccc2)cc1
T/C (dose: 100.0 mg/kg/injection, schedule: Q01DX001 (ip), vehicle: Klucel (hydroxypropylcellulose) (HPC)): 91 % of control
T/C (dose: 200.0 mg/kg/injection, schedule: Q01DX001 (ip), vehicle: Klucel (hydroxypropylcellulose) (HPC)): 91 % of control
T/C (dose: 400.0 mg/kg/injection, schedule: Q01DX001 (ip), vehicle: Klucel (hydroxypropylcellulose) (HPC)): 101 % of control and 91 % of control

Nc1ccc(S(=O)(=O)c2ccc(N)cc2)cc1
T/C (dose: 6.25 mg/kg/injection, schedule: Q01DX005 (ip), vehicle: Klucel (hydroxypropylcellulose) (HPC)): 106 % of control
T/C (dose: 12.5 mg/kg/injection, schedule: Q01DX005 (ip), vehicle: Klucel (hydroxypropylcellulose) (HPC)): 98 % of control
T/C (dose: 25.0 mg/kg/injection, schedule: Q01DX005 (ip), vehicle: Klucel (hydroxypropylcellulose) (HPC)): 104 % of control
T/C [8]: 105 % of control
T/C [9]: 109 % of control
T/C (dose: 150.0 mg/kg/injection, schedule: Q01DX009 (ip), vehicle: saline with Tween-80): 109 % of control and 93 % of control
T/C [7]: 98 % of control and 105 % of control

CCCCCc1cc(O)c2c(c1)OC(C)(C)[C@@H]1CCC(C)=C[C@@H]21
T/C (dose: 1.0 mg/kg/injection, schedule: Q01DX005 (iv), vehicle: other): 100 % of control
T/C (dose: 1.5 mg/kg/injection, schedule: Q02HX016 (oral), vehicle: olive oil, sesame oil, peanut oil): 92 % of control
T/C (dose: 2.0 mg/kg/injection, schedule: Q01DX005 (iv), vehicle: other): 100 % of control
T/C (dose: 3.0 mg/kg/injection, schedule: Q02HX016 (oral), vehicle: olive oil, sesame oil, peanut oil): 92 % of control
T/C (dose: 4.0 mg/kg/injection, schedule: Q01DX005 (iv), vehicle: other): 100 % of control
T/C (dose: 8.0 mg/kg/injection, schedule: Q01DX005 (iv), vehicle: other): 92 % of control
T/C (dose: 16.0 mg/kg/injection, schedule: Q01DX005 (iv), vehicle: other): 100 % of control
T/C (dose: 32.0 mg/kg/injection, schedule: Q01DX005 (iv), vehicle: other): 109 % of control and 96 % of control
T/C (dose: 64.0 mg/kg/injection, schedule: Q01DX005 (iv), vehicle: other): 99 % of control and 100 % of control
T/C (dose: 128.0 mg/kg/injection, schedule: Q01DX005 (iv), vehicle: other): 99 % of control
T/C (dose: 256.0 mg/kg/injection, schedule: Q01DX005 (iv), vehicle: other): 99 % of control

CCOP(=S)(N/N=C/c1ccc(Br)s1)OCC
T/C [8]: 101 % of control
T/C [9]: 106 % of control
T/C [10]: 104 % of control

CC1(C)CC(=O)C2=C(C1)CC1(C)CC(C)(C)CC2(OC(=O)Cc2ccccc2)C1 (stereo not given)
T/C [8]: 98 % of control
T/C [9]: 95 % of control
T/C [10]: 92 % of control

COc1ccc(CCN2C(=O)C(=O)N(c3ccc(Cl)c(Cl)c3)C2=O)cc1OC
T/C (dose: 50.0 mg/kg/injection, schedule: Q01DX009 (ip), vehicle: Klucel (hydroxypropylcellulose) (HPC)): 102 % of control
T/C (dose: 100.0 mg/kg/injection, schedule: Q01DX009 (ip), vehicle: Klucel (hydroxypropylcellulose) (HPC)): 97 % of control
T/C (dose: 200.0 mg/kg/injection, schedule: Q01DX009 (ip), vehicle: Klucel (hydroxypropylcellulose) (HPC)): 103 % of control

Nc1nn(-c2ccc(Br)cc2)c2cccc[n+]12
T/C [4]: 105 % of control
T/C (dose: 25.0 mg/kg/injection, schedule: Q01DX009 (ip), vehicle: other): 115 % of control
T/C [5]: 100 % of control
T/C (dose: 50.0 mg/kg/injection, schedule: Q01DX009 (ip), vehicle: other): 97 % of control
T/C [6]: 100 % of control and 97 % of control

Cc1cccc(=O)n1CCC#N
T/C [1]: 95 % of control
T/C [2]: 100 % of control
T/C [3]: 100 % of control

CC(C)c1cc(C(=O)O)c(O)c(C(C)C)c1.CC(C)c1cc(C(=O)O)c(O)c(C(C)C)c1.[Cu]
T/C (dose: 12.5 mg/kg/injection, schedule: Q01DX005 (ip), vehicle: saline with Tween-80): 96 % of control
T/C (dose: 25.0 mg/kg/injection, schedule: Q01DX005 (ip), vehicle: saline with Tween-80): 90 % of control
T/C (dose: 50.0 mg/kg/injection, schedule: Q01DX005 (ip), vehicle: saline with Tween-80): 98 % of control

C/C(=N\NC(=S)N1CCN(C2CCCCCC2)CC1)c1ccccn1
T/C (dose: 1.57 mg/kg/injection, schedule: Q01DX005 (ip), vehicle: saline with Tween-80): 96 % of control
T/C (dose: 3.13 mg/kg/injection, schedule: Q01DX005 (ip), vehicle: saline with Tween-80): 100 % of control
T/C (dose: 6.25 mg/kg/injection, schedule: Q01DX005 (ip), vehicle: saline with Tween-80): 114 % of control and 120 % of control

Cc1ccc(C(=O)CC(=O)Nc2cc([N+](=O)[O-])ccc2OCCOc2ccc(C(C)(C)CC(C)(C)C)cc2)cc1
T/C (dose: 18.75 mg/kg/injection, schedule: Q04DX003 (ip), vehicle: saline sonified): 109 % of control
T/C (dose: 37.5 mg/kg/injection, schedule: Q04DX003 (ip), vehicle: saline sonified): 90 % of control
T/C (dose: 75.0 mg/kg/injection, schedule: Q04DX003 (ip), vehicle: saline sonified): 109 % of control
